Experimental data published in article PMC12526278, “Origanum vulgare subsp. virens (Hoffmanns. & Link) Bonnier & Layens Essential Oils: Chemotypes and Bioactivity as Antifungal, Antifeeding and Enzyme Inhibitors” (Plants, 2025).
≈ marks a conversion by molar mass, not a printed value.

Tests used:
[1] = biological target: T1, α-glucosidase (α-GLU) extracted from Saccharomyces cerevisiae; test: 4-nitrophenol release, absorbance […] nm; type: biochemical; conditions: 4-nitrophenyl alpha-D-glucopyranoside (5 mM solution), 0.1 M phosphate pH 7.0, 37 °C, 20 min
T1 construct: gene MAL12; commercial yeast enzyme (Sigma-Aldrich)

[2] = biological target: T2, AChE from Electrophorus electricus (Electrophorus electricus, UniProt O42275); test: Ellman assay, absorbance […] nm; type: biochemical; conditions: acetylthiocholine iodide substrate with DTNB, phosphate buffer, 5 min preincubation; unreliable (above the tested range, extrapolated)
[3] = system: T1, α-glucosidase (α-GLU) extracted from Saccharomyces cerevisiae; test: 4-nitrophenol release, absorbance […] nm; type: biochemical; conditions: 4-nitrophenyl alpha-D-glucopyranoside (5 mM solution), 0.1 M phosphate pH 7.0, 37 °C, 20 min; unreliable (far above the tested range, extrapolated)
[4] = biological target: T2, AChE from Electrophorus electricus; test: biochemical
[5] = biological target: T3, β-glucosidase (β-GLU) from almonds; test: 4-nitrophenol release, absorbance […] nm; type: biochemical, Prunus dulcis; conditions: 4-nitrophenyl beta-D-glucopyranoside, 0.1 M phosphate pH 7.0, 37 °C, 20 min
T3 construct: gene beta-glucosidase; commercial enzyme from almonds (Sigma-Aldrich)

[6] = biological target: T2, AChE from Electrophorus electricus; test: Ellman assay, absorbance […] nm; type: biochemical; conditions: acetylthiocholine iodide substrate with DTNB, phosphate buffer; no significant inhibition

T2 sequence (O42275 24-633): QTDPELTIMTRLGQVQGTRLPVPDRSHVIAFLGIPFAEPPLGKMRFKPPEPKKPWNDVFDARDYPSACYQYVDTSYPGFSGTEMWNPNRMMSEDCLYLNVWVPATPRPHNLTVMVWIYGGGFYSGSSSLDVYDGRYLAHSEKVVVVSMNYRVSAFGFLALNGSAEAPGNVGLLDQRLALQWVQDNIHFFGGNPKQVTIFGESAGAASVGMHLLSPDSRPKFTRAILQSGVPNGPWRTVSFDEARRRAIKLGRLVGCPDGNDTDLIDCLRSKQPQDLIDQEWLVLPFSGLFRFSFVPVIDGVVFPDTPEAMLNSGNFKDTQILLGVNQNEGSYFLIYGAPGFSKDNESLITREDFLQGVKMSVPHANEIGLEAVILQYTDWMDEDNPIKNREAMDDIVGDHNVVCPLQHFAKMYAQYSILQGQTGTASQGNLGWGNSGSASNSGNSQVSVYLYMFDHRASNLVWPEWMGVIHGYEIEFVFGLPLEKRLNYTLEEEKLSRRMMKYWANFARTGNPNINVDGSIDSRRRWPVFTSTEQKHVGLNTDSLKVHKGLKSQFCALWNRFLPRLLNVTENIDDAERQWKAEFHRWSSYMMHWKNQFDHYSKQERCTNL

Compound: Cc1ccc(C(C)C)c(O)c1 [Thymol]
- α-GLU / IC50 [1]: 0.304 ± 0.025 mg/mL
- IC50 [2]: 2.531 ± 0.515 mg/mL (≈ 16.8 mM)

Compound: Cc1ccc(C(C)C)cc1O [Carvacrol]
- α-GLU / IC50 [3]: 109.34 ± 23.12 mg/mL
- IC50 [4]: 180 µM

Compound: OC[C@H]1NC[C@H](O)[C@@H](O)[C@@H]1O [1-DNJ]
- β-GLU / IC50 [5]: 0.036 ± 0.001 mg/mL

Compound: CC1=CCC(C(C)C)=CC1 [γ-terpinene]
- Ellman assay, absorbance 405 nm [6]: did not show significant AChE inhibition under our experimental conditions
